Data on 42 compounds can be found in patent publication US8895585B2, “Nicotinamide derivative or salt thereof” (FUJIFILM Corporation, priority 2010, dated 2014).

Assay [1] concerns the target T1, glutathione S-transferase (GST)-fused full-length human Syk protein (Homo sapiens, UniProt P43405).
T1 construct: (GST)-fused full-length human Syk protein; GST (glutathione S-transferase); purchased Carna Biosciences
Kind of assay: Syk enzyme assay. The assay is classed as biochemical. Summed up: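 Baculovirus-expressed enzyme (1.2 ng) was preincubated with compound in HEPES pH 7.0/MgCl2/DTT buffer, 2 min shaking then 13 min at room temperature. Biotin-EDPDYEWPSA-NH2 (0.4 μM final) and ATP (27 μM final) were added for 40 min at room temperature. EDTA stop, streptavidin-XL/PT66-K TR-FRET at 615/665 nm gave IC50.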

Assay [2] concerns THP-1 cells. Kind of assay: TNFα generation assay. Format: cell-based, human. As to conditions: Homo sapiens. A digest of the protocol: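 Secreted TNFα in supernatant quantified by ELISA or AlphaLISA after 7 h culture on human IgG-coated wells (10 μg/ml coating). Cells were IFN-γ-differentiated THP-1 (10 ng/ml, 2 days), exposed to compound for 30 min at room temperature before plating.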

The mark [3] stands for this setting: Syk enzyme assay, Test Example 1, read-out: IC50 of Syk-inhibitory activity.
Where [4] appears, read: THP-1, THP-1 cells, Table 22, read-out: IC50 in TNFα generation assay.
Setting [5] is: read-out: Syk-inhibitory activity (IC50).
Setting [6] is: THP-1, 7 h, IFN-γ-differentiated THP-1 cells on human IgG-coated plate, cultured 7 hours, read-out: TNFα generation inhibitory activity (IC50).

Where a name gives a salt, the structure may show the parent alone. Read-outs that look alike come from different tables or passages of the source. A value given as a limit tells only on which side of the number the result lay.

Take `NC(=O)c1cc(F)c(N[C@@H]2CCCC[C@@H]2N)nc1Nc1ccnc(-n2cccn2)c1` (relative stereo) [Example 006-130, 2-((2-(1H-pyrazol-1-yl)pyridin-4-yl)amino)-6-((cis-2-aminocyclohexyl)amino)-5-fluoronicotinamide]: the IC50 in assay [1] (setting [3]) was 0.01 to 0.05 µM; in assay [2] (setting [4]), 0.065 to 0.13 µM.
Take `NC(=O)c1cc(F)c(N[C@@H]2CCCC[C@@H]2N)nc1Nc1ccnc(Cl)c1` (relative stereo) [Example 006-163, 6-((cis-2-aminocyclohexyl)amino)-2-((2-chloropyridin-4-yl)amino)-5-fluoronicotinamide]: the IC50 in assay [1] (setting [3]) is under 0.01 µM; in assay [2] (setting [4]), 0.065 to 0.13 µM.
Consider `NC(=O)c1cc(F)c(N[C@@H]2CCCC[C@@H]2N)nc1Nc1cnc2ccccc2c1` (relative stereo) [Example 7, 6-(cis-2-aminocyclohexylamino)-5-fluoro-2-(quinolin-3-ylamino)nicotinamide], for which the IC50 is at most 1 µM in assay [1] (setting [5]) and at most 0.2 µM in assay [2] (setting [6]).
For `NC(=O)c1cc(F)c(N[C@@H]2CCCC[C@@H]2N)nc1Nc1cnc2ncccc2c1` (relative stereo) [Example 10-2, 6-(cis-2-aminocyclohexylamino)-5-fluoro-2-((1,8-naphthyridin-3-yl)amino)nicotinamide], the IC50 was at most 1 µM in assay [1] (setting [5]) and at most 0.2 µM in assay [2] (setting [6]).
In the case of `NC(=O)c1cc(F)c(N[C@@H]2CCCC[C@@H]2N)nc1Nc1cncc(NC(=O)c2ccccn2)c1` (relative stereo) [Example 027-020, N-(5-(6-(cis-2-aminocyclohexylamino)-3-carbamoyl-5-fluoropyridin-2-yl)aminopyridin-3-yl)picolinamide], the IC50 in assay [1] (setting [3]) fell in the range of 0.01 to 0.05 µM; in assay [2] (setting [4]), 0.13 to 0.2 µM.
For `CN(C)C(=O)c1cc2cc(Nc3nc(N[C@@H]4CCCC[C@@H]4N)c(F)cc3C(N)=O)ccc2[nH]1` (relative stereo) [Example 029-016, 5-((6-(cis-2-aminocyclohexylamino)-3-carbamoyl-5-fluoropyridin-2-yl)amino)-N,N-dimethyl-1H-indole-2-carboxamide] the same measures were under 0.01 µM and 0.13 to 0.2 µM.
As to `Cc1cncc(Nc2nc(N[C@@H]3CCCC[C@@H]3N)c(Cl)cc2C(N)=O)c1` (relative stereo) [Example 34, 6-(cis-2-aminocyclohexylamino)-5-chloro-2-(5-methylpyridin-3-ylamino)nicotinamide•hydrochloride], the IC50 is at most 1 µM in assay [1] (setting [5]) and at most 0.2 µM in assay [2] (setting [6]).
As to `NC(=O)c1cc(F)c(N[C@@H]2CCCC[C@@H]2N)nc1Nc1cc(N)c2ncccc2c1` (relative stereo) [Example 41-1, 6-(cis-2-aminocyclohexylamino)-2-((8-aminoquinolin-6-yl)amino)-5-fluoronicotinamide], the IC50 was under 0.01 µM in assay [1] (setting [3]) and 0.13 to 0.2 µM in assay [2] (setting [4]).
The matching figures for `CCS(=O)(=O)Nc1cccc2cc(Nc3nc(N[C@@H]4CCCC[C@@H]4N)c(F)cc3C(N)=O)cnc12` (relative stereo) [Example 41-12, 6-(cis-2-aminocyclohexylamino)-2-((8-(ethylsulphonamide)quinolin-3-yl)amino)-5-fluoronicotinamide]: under 0.01 µM and 0.13 to 0.2 µM.
For the compound `NC(=O)c1cc(F)c(N[C@@H]2CCCC[C@@H]2N)nc1Nc1cncc2ccccc12` (single isomer, unassigned) [Example 9, 6-(cis-2-aminocyclohexylamino)-5-fluoro-2-(isoquinolin-4-ylamino)nicotinamide•hydrochloride], the values for the IC50 in assay [1] (setting [5]) and in assay [2] (setting [6]) were at most 1 µM and at most 0.2 µM, respectively.
Consider `COc1cc(Nc2nc(N[C@@H]3CCCC[C@@H]3N)c(F)cc2C(N)=O)cc(OC)c1` (single isomer, unassigned) [Example 21, 6-(cis-2-aminocyclohexylamino)-2-(3,5-dimethoxyphenylamino)-5-fluoronicotinamide], for which the figures for the IC50 in assay [1] (setting [5]) and in assay [2] (setting [6]) were at most 1 µM and at most 0.2 µM, respectively.
With `COc1cc(Nc2nc(NC3CCCCC3N)c(F)cc2C(N)=O)cc(OC)c1OC` (stereo not drawn) [Example 002-007], the IC50 was 0.01 to 0.05 µM in assay [1] (setting [3]) and 0.065 to 0.13 µM in assay [2] (setting [4]).
For `Cc1cc(Nc2nc(NC3CCCCC3N)c(F)cc2C(N)=O)cnc1C` (stereo not drawn) [Example 002-024] the same measures were under 0.01 µM and 0.13 to 0.2 µM.
The matching figures for `NC(=O)c1cc(F)c(NC2CCCCC2N)nc1Nc1cccc2[nH]ncc12` (stereo not drawn) [Example 002-025]: under 0.01 µM and 0.065 to 0.13 µM.
`COCCn1ncc2c(Nc3nc(NC4CCCCC4N)c(F)cc3C(N)=O)cccc21` (stereo not drawn) [Example 002-030]: the IC50 in assay [1] (setting [3]) is under 0.01 µM; in assay [2] (setting [4]), 0.13 to 0.2 µM.
With `NC(=O)c1cc(F)c(NC2CCCCC2N)nc1Nc1cccc2nn(CC3CC3)cc12` (stereo not drawn) [Example 002-032], the IC50 was under 0.01 µM in assay [1] (setting [3]) and 0.13 to 0.2 µM in assay [2] (setting [4]).
Take `NC(=O)c1cc(F)c(NC2CCCCC2N)nc1Nc1ccc2nn(Cc3ccccc3)cc2c1` (stereo not drawn) [Example 002-037]: the IC50 in assay [1] (setting [3]) was under 0.01 µM; in assay [2] (setting [4]) it was 0.13 to 0.2 µM.
Take `CCc1cncc(Nc2nc(NC3CCCCC3N)c(F)cc2C(N)=O)c1` (stereo not drawn) [Example 002-038]: the IC50 in assay [1] (setting [3]) was under 0.01 µM; in assay [2] (setting [4]), 0.065 to 0.13 µM.
Regarding `Cn1cc2cc(Nc3nc(NC4CCCCC4N)c(F)cc3C(N)=O)ccc2n1` (stereo not drawn) [Example 002-041], the results for the IC50 in assay [1] (setting [3]) and in assay [2] (setting [4]) were under 0.01 µM and 0.065 to 0.13 µM, respectively.
For `COCCn1ncc2ccc(Nc3nc(NC4CCCCC4N)c(F)cc3C(N)=O)cc21` (stereo not drawn) [Example 002-048], the results for the IC50 in assay [1] (setting [3]) and in assay [2] (setting [4]) were under 0.01 µM and 0.13 to 0.2 µM, respectively.
On to `NC(=O)c1cc(F)c(NC2CCCCC2N)nc1Nc1ccnc(-c2ccco2)c1` (stereo not drawn) [Example 002-053], for which the IC50 was under 0.01 µM in assay [1] (setting [3]) and 0.065 to 0.13 µM in assay [2] (setting [4]).
The matching figures for `NC(=O)c1cc(F)c(NC2CCCCC2N)nc1Nc1ccnc(N2CCCC2=O)c1` (stereo not drawn) [Example 002-054]: 0.01 to 0.05 µM and 0.065 to 0.13 µM.
For the compound `CC(C)Oc1cc(Nc2nc(NC3CCCCC3N)c(F)cc2C(N)=O)ccn1` (stereo not drawn) [Example 002-055], the figures for the IC50 in assay [1] (setting [3]) and in assay [2] (setting [4]) were under 0.01 µM and 0.13 to 0.2 µM, respectively.
The matching figures for `NC(=O)c1cc(F)c(NC2CCCCC2N)nc1Nc1ccnc(-c2ccoc2)c1` (stereo not drawn) [Example 002-057]: under 0.01 µM and 0.065 to 0.13 µM.
For `CNc1cc(Nc2nc(NC3CCCCC3N)c(F)cc2C(N)=O)ccn1` (stereo not drawn) [Example 002-058] the same measures were under 0.01 µM and 0.065 to 0.13 µM.
On to `CCNc1cc(Nc2nc(NC3CCCCC3N)c(F)cc2C(N)=O)ccn1` (stereo not drawn) [Example 002-059], for which the IC50 is 0.01 to 0.05 µM in assay [1] (setting [3]) and 0.13 to 0.2 µM in assay [2] (setting [4]).
Take `CCOc1cc(Nc2nc(NC3CCCCC3N)c(F)cc2C(N)=O)ccn1` (stereo not drawn) [Example 002-060]: the IC50 in assay [1] (setting [3]) is under 0.01 µM; in assay [2] (setting [4]), 0.065 to 0.13 µM.
As to `COCCOc1cc(Nc2nc(NC3CCCCC3N)c(F)cc2C(N)=O)ccn1` (stereo not drawn) [Example 002-066], the figures for the IC50 in assay [1] (setting [3]) and in assay [2] (setting [4]) were under 0.01 µM and 0.13 to 0.2 µM, respectively.
`CNc1ccc(Nc2nc(NC3CCCCC3N)c(F)cc2C(N)=O)cn1` (stereo not drawn) [Example 002-073]: the IC50 lay within 0.01 to 0.05 µM in assay [1] (setting [3]) and 0.13 to 0.2 µM in assay [2] (setting [4]).
For `COCCOc1ccc2cc(Nc3nc(NC4CCCCC4N)c(F)cc3C(N)=O)ccc2n1` (stereo not drawn) [Example 002-097] the same measures were under 0.01 µM and 0.13 to 0.2 µM.
Consider `CCOCCOCCOc1ccc2cc(Nc3nc(NC4CCCCC4N)c(F)cc3C(N)=O)ccc2n1` (stereo not drawn) [Example 002-100], for which the IC50 in assay [1] (setting [3]) is under 0.01 µM; in assay [2] (setting [4]) it was 0.13 to 0.2 µM.
The matching figures for `COCCOCCOc1ccc2cc(Nc3nc(NC4CCCCC4N)c(F)cc3C(N)=O)ccc2n1` (stereo not drawn) [Example 002-110]: under 0.01 µM and 0.13 to 0.2 µM.
For `NC(=O)c1cc(F)c(NC2CCCCC2N)nc1Nc1ccc2nc(OCCN3CCCC3=O)ccc2c1` (stereo not drawn) [Example 002-113] the same measures were under 0.01 µM and 0.13 to 0.2 µM.
The matching figures for `NC(=O)c1cc(F)c(NC2CCCCC2N)nc1Nc1ccnc(-n2cncn2)c1` (stereo not drawn) [Example 002-114]: under 0.01 µM and under 0.065 µM.
For the compound `Cn1c(=O)ccc2cc(Nc3nc(NC4CCCCC4N)c(F)cc3C(N)=O)cnc21` (stereo not drawn) [Example 002-115], the IC50 in assay [1] (setting [3]) is 0.01 to 0.05 µM; in assay [2] (setting [4]) it was 0.13 to 0.2 µM.
On to `Cc1ncc(Nc2nc(NC3CCCCC3N)c(F)cc2C(N)=O)cc1-c1ccoc1` (stereo not drawn) [Example 002-117], for which the IC50 is under 0.01 µM in assay [1] (setting [3]) and 0.065 to 0.13 µM in assay [2] (setting [4]).
For the compound `Cc1ncc(Nc2nc(NC3CCCCC3N)c(F)cc2C(N)=O)cc1C1CC1` (stereo not drawn) [Example 002-118], the IC50 in assay [1] (setting [3]) is 0.01 to 0.05 µM; in assay [2] (setting [4]) it was 0.13 to 0.2 µM.
`Cc1nc2ccc(Nc3nc(NC4CCCCC4N)c(F)cc3C(N)=O)cc2nc1C` (stereo not drawn) [Example 002-123]: the IC50 in assay [1] (setting [3]) is under 0.01 µM; in assay [2] (setting [4]) it was 0.13 to 0.2 µM.
Turning to `CCn1ncc2cc(Nc3nc(NC4CCCCC4N)c(F)cc3C(N)=O)ccc21` (stereo not drawn) [Example 002-125], the IC50 was under 0.01 µM in assay [1] (setting [3]) and 0.065 to 0.13 µM in assay [2] (setting [4]).
As for `CCCn1ncc2cc(Nc3nc(NC4CCCCC4N)c(F)cc3C(N)=O)ccc21` (stereo not drawn) [Example 002-126], the IC50 in assay [1] (setting [3]) was under 0.01 µM; in assay [2] (setting [4]), 0.065 to 0.13 µM.
On to `NC(=O)c1cc(F)c(NC2CCCCC2N)nc1Nc1ccnc(-c2ccccc2F)c1` (stereo not drawn) [Example 002-131], for which the IC50 in assay [1] (setting [3]) is under 0.01 µM; in assay [2] (setting [4]), 0.065 to 0.13 µM.
Take `NC(=O)c1cc(F)c(NC2CCCCC2N)nc1Nc1cncc(-n2cncn2)c1` (stereo not drawn) [Example 002-137]: the IC50 is under 0.01 µM in assay [1] (setting [3]) and 0.13 to 0.2 µM in assay [2] (setting [4]).
